Assay results published in PubChem BioAssay (NCI).
Where “and” joins values, the source holds several entries; their conditions need not be identical. Equal values may be shown once.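 Each compound was tested at five concentrations against cells in 96-well plates for 48 hours. The concentration for 50% growth inhibition is given as GI50. Definition used: TGI = concentration required for complete inhibition of growth.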

Experiments:
Test in all cases: inhibition of tumour cell growth, NCI panel, 48 h
SNB-75 CNS = test system: SNB-75 CNS
SK-OV-3 ovarian = test system: SK-OV-3 ovarian
EKVX NSCLC = test system: EKVX NSCLC
HT29 colon = test system: HT29 colon
CAKI-1 renal = test system: CAKI-1 renal
UO-31 renal = test system: UO-31 renal
SNB-19 CNS = test system: SNB-19 CNS
K-562 leukemia = test system: K-562 leukemia
HOP-92 NSCLC = test system: HOP-92 NSCLC
SK-MEL-28 melanoma = test system: SK-MEL-28 melanoma

Row | SMILES | GI50 (SNB-75 CNS) [µM] | TGI (SNB-75 CNS) | GI50 (SK-OV-3 ovarian) | TGI (SK-OV-3 ovarian) | GI50 (EKVX NSCLC) | TGI (EKVX NSCLC) | GI50 (HT29 colon) | TGI (HT29 colon) | GI50 (CAKI-1 renal) | TGI (CAKI-1 renal) | GI50 (UO-31 renal) [µM] | TGI (UO-31 renal) | GI50 (SNB-19 CNS) [µM] | TGI (SNB-19 CNS) [µM] | GI50 (K-562 leukemia) | TGI (K-562 leukemia) | GI50 (HOP-92 NSCLC) | TGI (HOP-92 NSCLC) | GI50 (SK-MEL-28 melanoma) [µM] | TGI (SK-MEL-28 melanoma)
1 | CN(c1ccc(NC(=O)Nc2c(Cl)cccc2Cl)cc1)c1ccnc(Nc2cccc(CS(C)(=O)=O)c2)n1 | 1.69 | 7 µM | 4.72 µM | 12 µM | 6.31 µM | > 25 µM | 2.16 µM | 7.81 µM | 4.53 µM | 21 µM | 4.28 | 13.3 µM | 4.5 | > 25 | 1.54 µM | > 25 µM | 2.88 µM | 12 µM | 3.56 | 9.47 µM
2 | CCCCCCCCCCCCCCCCCCOC[C@H](COP(=O)(O)O[C@H]1[C@H](O)[C@@H](O)[C@H](O)C[C@H]1O)OC |  | 59.6 µM and 27.9 µM | > 100 µM and 17.4 µM | > 100 µM and 34 µM | 82.8 µM and 13.3 µM | > 100 µM and 26.8 µM | 58.7 µM and 13.1 µM | > 100 µM and 26.2 µM | 87.4 µM and 9.51 µM | > 100 µM and 25.1 µM | > 100 | > 100 µM and 22.1 µM |  |  | > 100 µM and 18.4 µM | > 100 µM and 55.2 µM | 29.4 µM and 12.3 µM | > 100 µM and 25.3 µM |  | > 100 µM and 33.8 µM
3 | COc1ccc2c(c1)NC1=C(C(=O)OC1)C2c1cc(OC)c(OC)c(OC)c1 (configuration not stated) | < 0.01 | 40 µM | < 0.01 µM |  | 12 µM | > 100 µM | < 0.01 µM | > 100 µM | < 0.0127 µM | > 100 µM |  | > 100 µM | < 0.01 | > 100 | < 0.01 µM | > 100 µM | < 0.0112 µM | > 100 µM |  | > 100 µM
4 | NC(CCCC(N)P(=O)(O)O)P(=O)(O)O (configuration not stated) |  | > 100 µM |  | > 100 µM |  | > 100 µM |  | > 100 µM |  | > 100 µM |  | > 100 µM |  |  |  | > 100 µM |  | > 100 µM |  | > 100 µM
5 | C[C@]12CCc3sc(Nc4ccc(OC(F)(F)F)cc4)nc3C1=CC[C@@H]1[C@@H]2CC[C@]2(C)C(=O)CC[C@@H]12 | 1.88 | 6.23 µM | 3.04 µM | 10 µM | 2.63 µM | 17.4 µM | 2.39 µM | 10.9 µM | 3.21 µM | 13.2 µM | 2.06 | 4.73 µM | 2.12 | 9.93 | 1.87 µM | 6.64 µM | 1.43 µM | 3.44 µM | 1.88 | 7.98 µM
6 | CCOc1cccc(/C=N/NC(=O)c2cccc(Nc3ccnc(C(F)(F)F)c3)c2)c1O | 11.2 | 39.2 µM | 0.796 µM | 33.1 µM | 1.55 µM | > 64.5 µM | 5.34 µM | > 82.7 µM | 0.772 µM | 32 µM | 0.717 | 26.2 µM | 1.63 | > 100 | 1.32 µM | 30.6 µM | 5.21 µM | > 100 µM | 2.31 | 36.6 µM
7 | CCN1CCCc2cc3c(C(F)(F)F)cc(=O)oc3cc21 |  | 96.7 µM |  | > 100 µM |  | > 100 µM |  | > 100 µM |  | > 100 µM |  | > 100 µM |  | > 100 |  | > 100 µM |  | 84 µM |  | > 100 µM
